Columns and labels:
[1] = biological target: aglycanase; test: Aglycanase inhibition test (in vitro); format: biochemical; details: aglycanase from bovine nasal septum cartilage culture, aglycan-containing polyacrylamide particles, 37° C. for 2.5 hours
Method: An aglycanase inhibition test can be conducted by, for example, measuring aglycanase activity in the presence or absence of a test compound according to the method of Nagase et al. (H. Nagase and J. F. Woessner, Analytical Biochemistry, vol. 107, 385-392, 1980).
The enzyme used for measurement of aglycanase activity can be extracted from mammalian cartilage tissue itself or from its cultured medium. Extraction is performed by combining various types of chromatography, and the activity of aglycanase in the purification process can be detected by adding substrate (aglycan) to an eluted fraction and testing whether or not the substrate is cleaved. Whether or not the substrate is cleaved can be determined by performing imnunoblotting for the reaction liquid using an antibody that binds to the epitope, CNLeNIEGE, that is produced by cleavage of aglycan (substrate) by aglycanase (enzyme). It should be noted that antibody that binds to CNLeNIEGE can be prepared according to the method of Sandy et al. (J. D. Sandy et al., Journal of Biological Chemistry, vol. 270, 2550-2556, 1995).
Bovine nasal septum cartilage was cultured for 7 days at 37° C. in the presence of 1 μm retinoic acid in DMEM [containing 20 mM N-2-hydroxyethyl-piperazine-N′-2-ethane sulfonic acid (HEPES), 0.005% bovine serum albumin (BSA), 5 μg/ml insulin-transferrin sodium selenite media supplement, 1% penicillin and 1% streptomycin] while changing the medium once a day. The culture liquid collected from day 3 to day 7 was subjected to chromatography [carrier: Q-sepharose (Pharmacia), mobile phase: 20 mM Tris-HCl buffer (pH 7.2) containing 5 mM calcium chloride] and the fraction that passed through the column was collected. This was then subjected to additional chromatography [carrier: Zn-chelating sepharose (Pharmacia), mobile phase: Tris-HCl buffer (pH 7.2) containing 5 mM calcium chloride and 0.5 M sodium chloride], followed by elution using imidazole as the mobile phase. The fraction of the resulting eluted fractions that was confirmed to have aglycanase activity was collected. Moreover, this was subjected to additional chromatography [carrier: LCA-agarose (Honen Corporation), mobile phase: 20 mM aqueous solution of 2-(N-morpholino)ethanesulfonic acid (pH 6.5) containing 5 mM calcium chloride and 0.25 M sodium chloride], followed by elution using 2-methylmannopyranoside as the mobile phase. The fraction of the resulting eluted fractions that was confirmed to have aglycanase activity was collected, and this fraction was used as the enzyme liquid for measurement of aglycanase activity.
Separate from the above, antibody that binds with CNLeNIEGE was prepared according to the method of Sandy et al. (J. D. Sandy et al., Journal of Biological Chemistry, vol. 270, 2550-2556, 1995), and this antibody was used in immunoblotting to detect aglycanase activity in the above-mentioned purification process of the aglycanase. Immunoblotting was performed in accordance with conventional methods.
Measurement of activity was performed using a modification of the protease activity measurement method that uses polyacrylamide particles of Nagase et al. (H. Nagase and J. F. Woessner, Analytical Biochemistry, vol. 107, 385-392, 1980).
The aglycan used for the substrate was isolated from bovine nasal septum cartilage in accordance with cesium chloride sedimentation equilibrium centrifugation (New Biochemical Experimentation Course, 3, Saccharides II, 4-7, Tokyo Kagaku Dojin Publishing, 1991). By using this aglycan, polyacrylamide particles containing aglycan were prepared in accordance with the method of Nagase et al. (H. Nagase and J. F. Woessner, Analytical Biochemistry, vol. 107, 385-392, 1980). Namely, aglycan (dry weight: 480 mg) was first added to 28 ml of liquid A [1 M Tris-HCl buffer (pH 8.5) containing 0.2% N,N,N′,N′-tetramethylethylenediamine (TEMED)] and the mixture was stirred at 4° C. for 1 hour. […]

[2] = biological target: T1, MMP-13 (Homo sapiens, UniProt P45452); test: MMP-13 inhibition test (in vitro); format: biochemical; details: recombinant active MMP-13, fluorescent substrate 20 μM, 1 hour at 37° C.
T1 construct: made in house; host or cells: COS-1 cells (vector pcDL-SRα296, culture supernatant)
Description: MMP-13 exists in chondrocytes and chondrosarcoma cells, and the DNA sequence corresponding to the amino acid sequence of its precursor (proMMP-13) has been reported by Freije et al. (Freije, J. M. P., et al., J. Biol. Chem., vol. 269, 16766-16773, 1994). Therefore, proMMP-13 can be expressed by acquiring cDNA of proMMP-13 from chondrocytes and chondrosarcoma cells in accordance with conventional methods, by incorporating this into an ordinarily used vector, and by introducing this vector into suitable cells to transform the cells.
An MMP-13 inhibition test can be conducted by, for example, treating recombinant proMMP-13 obtained in the above manner with p-aminophenyl-mercuric(II) acetate (APMA) to convert proMMP-13 to active MMP-13, and then using this as enzyme to measure MMP-13 activity in the presence or absence of a test compound using a fluorescent substrate.
mRNA was isolated from human chondrosarcoma HCS-2/8, which is a chondrosarcoma cell line established by Takigawa et al. (Jpn. J. Cancer. Res., vol. 85, 364-371, 1994), in accordance with conventional methods, and cDNA of proMMP-13 was acquired by reverse transcription polymerase chain reaction (RT-PCR). 5′-[…]-3′ (Sequence No. 1 of the Sequence listing) and 5′-[…]-3′ (Sequence No. 2 of the Sequence listing), which contain the restriction enzyme cleavage site sacI or KpnI (portions indicated by underlining) were used for primers. […]
This enzyme solution and substrate (20 μM) were added to 50 mM Tris-HCl buffer (pH 7.5) containing 0.15 M sodium chloride, 10 mM calcium chloride, 0.05% Brij 35 and 0.02% sodium azide to bring the final volume to 0.1 ml, followed by reacting for 1 hour at 37° C. After stopping the reaction by adding 0.1 ml of 3% acetic acid, enzyme activity was determined by measuring with a fluorophotometer (Labsystems Fluoroskan II) at an excitation wavelength of 330 nm and emission wavelength of 390 nm. […]

Row | Compound | melting point [°C] | IC50 [1] [nM] | IC50 [2] [nM]
1 | CN(C(CCn1c(=O)[nH]c2ccccc2c1=O)C(=O)NO)S(=O)(=O)c1ccc(Oc2ccccc2)cc1 (racemic) [Example 6, (±)-N-Hydroxy-Nα-methyl-Nα-(4-phenoxybenzenesulfonyl)-2-[2-(quinazolin-2,4-dione-3-yl)ethyl]glycinamide] |  | 7 | 
2 | CN([C@H](CCN1C(=O)c2ccccc2C1=O)C(=O)NO)S(=O)(=O)c1ccc(Oc2ccccc2)cc1 [Example 72, N-Hydroxy-Nα-methyl-Nα-(4-phenoxybenzensulfonyl)-2(R)-(2-phthalimidoethyl)glycinamide] |  | 4.9 | 
3 | Cc1[nH]c(=O)n(CCC(C(=O)NO)N(C)S(=O)(=O)c2ccc(Oc3ccccc3)cc2)c(=O)c1C (racemic) [Example 18, (±)-2-[2-(5,6-Dimethylpyrimidin-2,4-dione-3-yl)ethyl]-N-hydroxy-Nα-methyl-Nα-(4-phenoxybenzenesulfonyl)glycinamide] |  | 7.6 | 
4 | CN(C(CCn1c(=O)[nH]c2ccsc2c1=O)C(=O)NO)S(=O)(=O)c1ccc(Oc2ccccc2)cc1 (racemic) [Example 42, (±)-N-Hydroxy-Nα-methyl-Nα-(4-phenoxybenzensulfonyl)-2-[2-(thieno[3,2-d]pyrimidin-2,4-dione-3-yl)ethyl]glycinamide] |  | 5.4 | 0.47

More lines, now with the values ahead:

Row | melting point [°C] | IC50 [1] [nM] | IC50 [2] [nM] | Compound
5 | 155 to 156 |  |  | CN(C(CCN1C(=O)c2cc(Cl)c(Cl)cc2C1=O)C(=O)NO)S(=O)(=O)c1ccc(Oc2ccccc2)cc1 (racemic) [Example 84, (±)-2-[2-(4,5-Dichlorophthalimido)ethyl]-N-hydroxy-Nα-methyl-Nα-(4-phenoxybenzenesulfonyl)glycinamide]
6 | 157 to 158 |  |  | Cc1ccc2c(c1)C(=O)N(CCC(C(=O)NO)N(C)S(=O)(=O)c1ccc(Oc3ccccc3)cc1)C2=O (racemic) [Example 86, (±)-N-Hydroxy-Nα-methyl-2-[2-(4-methylphthalimido)ethyl]-Nα-(4-phenoxybenzenesulfonyl)glycinamide]
7 |  | 2.9 |  | CN([C@H](CCN1C(=O)c2ccccc2C1=O)C(=O)NO)S(=O)(=O)c1ccc(Oc2cccc(Cl)c2)cc1 [Example 141, Nα-[4-(3-Chlorophenoxy)benzenesulfonyl]-N-hydroxy-Nα-methyl-2(R)-(2-phthalimidoethyl)glycinamide]
8 |  | 2.2 | 0.32 | CN([C@H](CCn1c(=O)[nH]c2ccsc2c1=O)C(=O)NO)S(=O)(=O)c1ccc(Oc2cccc(Cl)c2)cc1 [Example 140, Nα-[4-(3-Chlorophenoxy)benzenesulfonyl]-N-hydroxy-Nα-methyl-2(R)-[2-(thieno[3,2-d]pyrimidin-2,4-dione-3-yl)ethyl]glycinamide]
9 |  | 3.7 | 0.43 | CN([C@H](CCn1c(=O)[nH]c2ccccc2c1=O)C(=O)NO)S(=O)(=O)c1ccc(Oc2cccc(Cl)c2)cc1 [Example 139, Nα-[4-(3-Chlorophenoxy)benzenesulfonyl]-N-hydroxy-Nα-methyl-2(R)-[2-(quinazolin-2,4-dione-3-yl)ethyl]glycinamide]

— patent US6673804B1, “Sulfonamide derivatives” (Sankyo Company, Limited, priority 1998, dated 2004)
